Data: patent publication US10072023B2, “Diarylethene compounds and uses thereof” (SWITCH MATERIALS, INC., priority 2011, dated 2018)

What was measured:
[1] = Solubility in indicated solvent; format: physicochemical; settings: % wt soluble in triglyme
Description: A compound with greater solubility allows for a formulation or material with a greater concentration of coloured molecule to be incorporated into a composition. This may allow for increasing the contrast ratio for a compound with a lesser absorbance at PSS. Inclusion of a solubilizing group in a compound according to various embodiments of the invention may increase solubility. Examples of solubilizing groups may include alkoxy or siloxy groups.

[2] = Absorbance at photostationary state (PSS) under simulated sunlight or 365 nm light; format: physicochemical; set-up: λ max: unit not given here; settings: for Absorbance at PSS, 365 nm: 365 nm light source; for Absorbance at PSS, 365 nm / Absorbance at PSS, full / Absorbance at PSS, +UV / λ max: 2.0×10^−5 M in triglyme; for sensitivity index: ratio of PSS under 365 nm light to PSS under full spectrum light (without UV blocking film); for Absorbance at PSS, full: simulated sunlight (QSUN solar simulator), no UV blocking film; for Absorbance at PSS, +UV: simulated sunlight with UV blocking film (cutoff 370 nm); for λ max: wavelength of maximum absorbance in the visible range, ring-closed isoform
Procedure, shortened: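 Compounds at 2.0×10^−5 M in triglyme, photofaded with visible light, then irradiated with simulated sunlight (xenon arc) or 365 nm light until the UV/Vis spectrum stabilized. Also irradiated through a UV-blocking film (370 nm cutoff); sensitivity index is PSS under 365 nm divided by PSS under full spectrum.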

| SMILES | Solubility [1] | Absorbance at PSS, 365 nm [2] | sensitivity index [2] | Absorbance at PSS, full [2] | Absorbance at PSS, +UV [2] | λ max [2] |
| --- | --- | --- | --- | --- | --- | --- |
| CC(C)(C)c1ccc(-c2sc(-c3cccs3)cc2C2=C(c3cc(-c4cccs4)sc3-c3ccc(C(C)(C)C)cc3)C(F)(F)C(F)(F)C2(F)F)cc1 [S052, 4,4″-(perfluorocyclopent-1-ene-1,2-diyl)bis(5-(4-(tert-butyl)phenyl)-2,2′-bithiophene)] | 1 % wt | 0.318 | 1.54 | 0.206 | 0.116 | 630 |
| c1ccc(-c2nc(-c3nc(-c4ccccc4)sc3-c3nc(-c4ccccc4)sc3-c3ccccc3)c(-c3ccccc3)s2)cc1 [S032, 2,2′,2″,5,5″-pentaphenyl-4,4′:5′,4″-terthiazole] | 1 % wt | 0.594 | 18.56 | 0.032 | 0.008 | 600 |
| COc1ccc(-c2cc(C3=C(c4cc(-c5ccc(OC)cc5)sc4-c4ccc(OC)cc4)C(F)(F)C(F)(F)C3(F)F)c(-c3ccc(OC)cc3)s2)cc1 [S054, 3,3′-(perfluorocyclopent-1-ene-1,2-diyl)bis(2,5-bis(4-methoxyphenyl)thiophene)] | 5-6 % wt | 0.268 | 2.53 | 0.106 | 0.056 | 630 |
| CCOCCOCCOCCOC(CC)(CC)c1ccc(-c2sc(-c3ccc(C(C)(C)C)s3)cc2C2=C(c3cc(-c4ccc(C(C)(C)C)s4)sc3-c3ccc(C(CC)(CC)OCCOCCOCCOCC)s3)C(F)(F)C(F)(F)C2(F)F)s1 [S128, 13,13′-(3′,3″″-(perfluorocyclopent-1-ene-1,2-diyl)bis(5″-(tert-butyl)-[2,2′: 5′,2″-terthiophene]-5,3′-diyl))bis(13-ethyl-3,6,9,12-tetraoxapentadecane)] | >25 % wt | 0.403 | 1.53 | 0.264 | 0.224 | 648 |
| COc1cccc(-c2cc(C3=C(c4cc(-c5cccc(OC)c5)sc4-c4cccc(OC)c4)C(F)(F)C(F)(F)C3(F)F)c(-c3cccc(OC)c3)s2)c1 [S096, 3,3′-(perfluorocyclopent-1-ene-1,2-diyl)bis(2,5-bis(3-methoxyphenyl)thiophene)] | 15 % wt | 0.183 | 4.07 | 0.045 | 0.014 | 609 |
| Cc1c(-c2ccccc2)sc(-c2ccccc2)c1C1=C(c2c(-c3ccccc3)sc(-c3ccccc3)c2C)C(F)(F)C(F)(F)C1(F)F [S017, 4,4′-(perfluorocyclopent-1-ene-1,2-diyl)bis(3-methyl-2,5-diphenylthiophene)] | 1 % wt | 0.049 | 5.44 | 0.009 | 0.0025 | 605 |
| CC(C)(C)c1ccc(-c2cc(C3=C(c4cc(-c5ccc(C(C)(C)C)cc5)sc4-c4cccs4)C(F)(F)C(F)(F)C3(F)F)c(-c3cccs3)s2)cc1 [S049, 3,3″-(perfluorocyclopent-1-ene-1,2-diyl)bis(5-(4-(tert-butyl)phenyl)-2,2′-bithiophene)] | 2 % wt | 0.217 | 2.49 | 0.087 | 0.044 | 625 |
| Cc1cc(-c2cc(C3=C(c4cc(-c5cc(C)c(C)s5)sc4-c4cc(C)c(C)s4)C(F)(F)C(F)(F)C3(F)F)c(-c3cc(C)c(C)s3)s2)sc1C [S011] | 3 % wt | 0.363 | 1.81 | 0.201 | 0.142 | 655 |
| CC(C)(C)c1ccc(-c2sc(-c3ccc(C4(C)OCCO4)cc3)cc2C2=C(c3cc(-c4ccc(C5(C)OCCO5)cc4)sc3-c3ccc(C(C)(C)C)cc3)C(F)(F)C(F)(F)C2(F)F)cc1 [S066, 2,2′-((4,4′-(perfluorocyclopent-1-ene-1,2-diyl)bis(5-(4-(tert-butyl)phenyl)thiophene-4,2-diyl))bis(4,1-phenylene))bis(2-methyl-1,3-dioxolane)] | 2.5 % wt | 0.226 | 2.28 | 0.099 | 0.049 | 615 |
| CCCCCCCCc1ccc(-c2oc3ccccc3c2C2=C(c3c(-c4ccc(CCCCCCCC)cc4)oc4ccccc34)C(F)(F)C(F)(F)C2(F)F)cc1 [S079, 1,2-bis(2-(4-n-octylphenyl)-1-benzofuran-3-yl)perfluorocyclopentene] | 8-11 % wt | 0.17 | 7.39 | 0.023 | 0.008 | 490 |
| COc1ccc(-c2cc(C3=C(c4cc(-c5ccc(OC)s5)sc4-c4ccc(OC)s4)C(F)(F)C(F)(F)C3(F)F)c(-c3ccc(OC)s3)s2)s1 [S020, 3′,3″″-(perfluorocyclopent-1-ene-1,2-diyl)bis(5,5″-dimethoxy-2,2′:5′,2″-terthiophene)] | 3 % wt | 0.244 | 2.12 | 0.115 | 0.085 | 665 |
| COCCOCCOCCOc1ccc(-c2sc(-c3ccc(C(C)(C)C)s3)cc2C2=C(c3cc(-c4ccc(C(C)(C)C)s4)sc3-c3ccc(OCCOCCOCCOC)cc3)C(F)(F)C(F)(F)C2(F)F)cc1 [S108] | >25 % wt | 0.374 | 1.28 | 0.292 | 0.215 | 645 |
| CC(C)(C)c1ccc(-c2sc(-c3ccccc3)cc2C2=C(c3cc(-c4ccccc4)sc3-c3ccc(C(C)(C)C)cc3)C(F)(F)C(F)(F)C2(F)F)cc1 [S057, 3,3′-(perfluorocyclopent-1-ene-1,2-diyl)bis(2-(4-tert-butylphenyl)-5-phenylthiophene)] | 1.5 % wt | 0.204 | 2.58 | 0.079 | 0.033 | 610 |
| CC(C)(C)c1ccc(-c2cc(C3=C(c4cc(-c5ccc(C(C)(C)C)s5)sc4-c4ccc(C(C)(C)C)s4)C(F)(F)C(F)(F)C3(F)F)c(-c3ccc(C(C)(C)C)s3)s2)s1 [S003, 3′,3″″-(perfluorocyclopent-1-ene-1,2-diyl)bis(5,5″-di-tert-butyl-2,2′:5′,2″-terthiophene)] | <3 % wt | 0.372 | 1.40 | 0.2655 | 0.2055 | 650 |
| COCCC[Si](CCCOC)(CCCOC)c1ccc(-c2sc(-c3ccc(C(C)(C)C)s3)cc2C2=C(c3cc(-c4ccc(C(C)(C)C)s4)sc3-c3ccc([Si](CCCOC)(CCCOC)CCCOC)s3)C(F)(F)C(F)(F)C2(F)F)s1 [S158] | >20 % wt | 0.394 | 1.15 | 0.342 | 0.291 | 650 |
